Results published in ChEMBL document CHEMBL4699472, “Novel potent and selective pyrazolylpyrimidine-based SYK inhibitors” (Bioorg Med Chem Lett, 2020).

How the values were obtained:
[1] = target: Tyrosine-protein kinase SYK (Homo sapiens, UniProt P43405); experiment: Inhibition of SYK (unknown origin)
[2] = Lipophilicity, logD of compound in buffer:octanol (100:1) at pH 7.4 by shake flask method; assay type: physicochemical
[3] = Intrinsic clearance in rat hepatocytes measured per million cells; assay type: ADME, cell-based, Hepatocyte; conditions: read-out: CLH
[4] = Intrinsic clearance in human liver microsomes; assay type: ADME, Microsome; conditions: read-out: CLH
[5] = target: Voltage-gated inwardly rectifying potassium channel KCNH2 (Homo sapiens, UniProt Q12809); experiment: Inhibition of human ERG assessed as tail current by plate-based planar patch clamp assay
SUD4 = experiment: Growth inhibition of human SU-DHL-4 cells after 72 hrs; assay type: functional
[6] = Clearance in Han Wistar rat at 2 umol/kg, po and 1 umol/kg, iv; assay type: ADME, organism-based; conditions: in vivo, dose 1 µmol/kg
[7] = Volume of distribution at steady state in Han Wistar rat at 2 umol/kg, po and 1 umol/kg, iv; assay type: ADME, organism-based; conditions: in vivo, dose 1 µmol/kg, read-out: Vdss
[8] = Oral bioavailability in Han Wistar rat at 2 umol/kg; assay type: ADME, organism-based; conditions: in vivo, at 2 µmol/kg
[9] = Protein binding in Han Wistar rat plasma assessed as unbound fraction; assay type: ADME, cell-free
[10] = Dissociation constant, pKa of the compound; assay type: physicochemical
[11] = Clearance in Beagle dog at 2 umol/kg, po and 1 umol/kg, iv; assay type: ADME, organism-based, Canis lupus familiaris; conditions: in vivo, dose 2 µmol/kg
[12] = Volume of distribution at steady state in Beagle dog at 2 umol/kg, po and 1 umol/kg, iv; assay type: ADME, organism-based, Canis lupus familiaris; conditions: in vivo, dose 2 µmol/kg, read-out: Vdss
[13] = Oral bioavailability in Beagle dog at 2 umol/kg; assay type: ADME, organism-based, Canis lupus familiaris; conditions: in vivo, at 2 µmol/kg
[14] = Protein binding in Beagle dog plasma assessed as unbound fraction; assay type: ADME, cell-free, Canis lupus familiaris
[15] = Intrinsic clearance in dog hepatocytes measured per million cells; assay type: ADME, cell-based, Canis lupus familiaris, Hepatocyte; conditions: read-out: CLH
[16] = Clearance in Beagle dog at 2 umol/kg, po and 1 umol/kg, iv relative to hepatic blood flow; assay type: ADME, organism-based, Canis lupus familiaris; conditions: in vivo, at 2 µmol/kg

Sequence of Voltage-gated inwardly rectifying potassium channel KCNH2 (Q12809 whole entry): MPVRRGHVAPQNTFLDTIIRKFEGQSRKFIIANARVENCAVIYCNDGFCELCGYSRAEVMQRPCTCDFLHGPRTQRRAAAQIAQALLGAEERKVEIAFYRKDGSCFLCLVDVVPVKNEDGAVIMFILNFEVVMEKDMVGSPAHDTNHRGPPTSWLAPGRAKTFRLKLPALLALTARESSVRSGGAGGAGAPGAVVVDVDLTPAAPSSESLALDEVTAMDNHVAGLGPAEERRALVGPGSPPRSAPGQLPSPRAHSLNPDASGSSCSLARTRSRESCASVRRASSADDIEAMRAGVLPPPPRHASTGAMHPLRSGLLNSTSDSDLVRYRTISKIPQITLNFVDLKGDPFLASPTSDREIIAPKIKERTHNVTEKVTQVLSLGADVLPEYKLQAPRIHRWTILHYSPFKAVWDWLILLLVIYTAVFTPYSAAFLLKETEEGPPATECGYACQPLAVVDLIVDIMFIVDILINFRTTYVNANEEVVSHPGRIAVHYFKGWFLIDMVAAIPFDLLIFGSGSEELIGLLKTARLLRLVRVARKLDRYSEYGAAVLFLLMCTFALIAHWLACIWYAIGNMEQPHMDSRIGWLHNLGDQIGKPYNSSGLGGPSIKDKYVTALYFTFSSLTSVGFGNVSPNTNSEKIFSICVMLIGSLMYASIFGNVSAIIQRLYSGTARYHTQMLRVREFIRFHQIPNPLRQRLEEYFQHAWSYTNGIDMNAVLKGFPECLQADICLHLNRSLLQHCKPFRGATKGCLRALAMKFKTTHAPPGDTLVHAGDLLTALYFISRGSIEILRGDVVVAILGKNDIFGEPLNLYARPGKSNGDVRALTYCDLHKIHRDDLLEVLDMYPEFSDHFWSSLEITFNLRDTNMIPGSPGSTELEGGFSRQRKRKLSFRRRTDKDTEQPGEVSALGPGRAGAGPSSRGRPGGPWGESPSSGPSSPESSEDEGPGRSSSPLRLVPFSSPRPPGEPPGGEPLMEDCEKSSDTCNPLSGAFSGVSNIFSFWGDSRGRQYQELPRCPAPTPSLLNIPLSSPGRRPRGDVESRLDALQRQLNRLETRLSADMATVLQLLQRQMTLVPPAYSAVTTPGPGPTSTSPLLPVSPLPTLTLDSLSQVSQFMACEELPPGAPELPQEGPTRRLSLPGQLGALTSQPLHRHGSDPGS

SMILES	IC50 [1] [nM]	logD [2]	hepatocyte CLint [3] [µL/min/1e6 cells]	microsomal CLint [4] [µL/min/mg]	IC50 [5] [nM]	GI50 (SUD4) [nM]	also measured
Cc1nnc(-c2nn(C)c3ccc(Nc4nccc(-n5cc(N[C@@H]6CCOC[C@@H]6N)c(C)n5)n4)cc23)o1	0.2	3.1	17	129	11000	1300	–
CNC(=O)c1nc(C)n2ccc(Nc3nccc(-n4cc(OCCN)cn4)n3)cc12	0.88	0.6	14	7	> 39000	–	–
CNC(=O)c1nc(C)n2ccc(Nc3nccc(-n4cc(N[C@@H]5CCOC[C@@H]5N)c(C)n4)n3)cc12	3.2	1.6	6	32	> 39000	810	–
CNC(=O)c1nn(C)c2ccc(Nc3nccc(-n4cc(N[C@@H]5CCOC[C@@H]5N)c(C)n4)n3)cc12	0.34	1.6	8	32	–	560	clearance [6]: 76 mL/min/kg; Vd [7]: 5.4 L/kg; bioavailability [8]: 3.8%; fraction unbound [9]: 0.25
CNC(=O)c1nn(C)c2ccc(Nc3nccc(-n4cc(NC5CNC5)c(C)n4)n3)cc12	1.5	0.7	< 1	8	–	–	–
CNC(=O)c1nn(C)c2ccc(Nc3nccc(-n4cc(NCC5(N)CC5)c(C)n4)n3)cc12	0.34	2.3	8	28	–	2800	clearance [6]: 13 mL/min/kg; Vd [7]: 1.3 L/kg; bioavailability [8]: 29%; fraction unbound [9]: 0.056
CNC(=O)c1nn(C)c2ccc(Nc3nccc(-n4cc(CN(C)C)c(C)n4)n3)cc12	–	–	–	–	–	240	–
CNC(=O)c1nn(C)c2ccc(Nc3nccc(-n4cc(N[C@@H]5CCNC5)c(C)n4)n3)cc12	0.6	0.3	3	< 10	> 39000	170	clearance [6]: 60 mL/min/kg; Vd [7]: 13 L/kg; bioavailability [8]: 0%; fraction unbound [9]: 0.24; pKa [10]: 9.5
CNC(=O)c1nn(C)c2ccc(Nc3nccc(-n4cc(O[C@@H]5CCCNC5)c(C)n4)n3)cc12	0.19	1.7	9	8	2500	350	–
CNC(=O)c1nn(C)c2ccc(Nc3nccc(-n4cc(OC5CNC5)c(C)n4)n3)cc12	1.3	1.9	13	< 3	–	–	–
CNC(=O)c1nn(C)c2ccc(Nc3nccc(-n4cc(N[C@@H]5CCCNC5)c(C)n4)n3)cc12	0.73	0.6	3	< 5	> 39000	300	clearance [6]: 78 mL/min/kg; Vd [7]: 19 L/kg; bioavailability [8]: 0%; fraction unbound [9]: 0.33
CNC(=O)c1nn(C)c2ccc(Nc3nccc(-n4cc(O[C@H]5CCNC5)c(C)n4)n3)cc12	2.9	–	–	–	–	–	–
CNC(=O)c1nc(C)n2ccc(Nc3nccc(-n4cc(N[C@@H]5CCOC[C@@H]5N)cn4)n3)cc12	–	1.7	14	20	> 39000	260	–
CNC(=O)c1nn(C)c2ccc(Nc3nccc(-n4cc(N[C@H]5CNC[C@@H]5F)c(C)n4)n3)cc12	0.3	1.7	8	28	19000	970	pKa [10]: 7.8
CNC(=O)c1nn(C)c2ccc(Nc3nccc(-n4cc(N[C@H]5CCNC5)c(C)n4)n3)cc12	11	–	–	–	–	–	–
CNC(=O)c1nn(C)c2ccc(Nc3nccc(-n4cc(O[C@@H]5CCNC5)c(C)n4)n3)cc12	0.51	1.4	13	< 5	5200	510	–
CNC(=O)c1nc(C)n2ccc(Nc3nccc(-n4cc(NCCN)cn4)n3)cc12	0.23	–	2	< 3	> 39000	–	–
CNC(=O)c1nn(C)c2ccc(Nc3nccc(-n4cc(N[C@@H]5CCOC[C@@H]5N)cn4)n3)cc12	0.33	2.2	4	17	15000	220	clearance [6]: 82 mL/min/kg; Vd [7]: 9.8 L/kg; bioavailability [8]: 1.8%; fraction unbound [9]: 0.28; clearance [11]: 16 mL/min/kg; Vd [12]: 5.7 L/kg; bioavailability [13]: 2%; fraction unbound [14]: 0.27; hepatocyte CLint [15]: < 1 µL/min/1e6 cells; CL [16]: 40%
Cc1nn(-c2ccnc(Nc3ccc4c(c3)c(Cl)nn4C)n2)cc1N[C@@H]1CCOC[C@@H]1N	62	–	–	–	–	–	–
CNC(=O)c1nn(C)c2ccc(Nc3nccc(-n4cc(N[C@@H]5CCN(C)C5)c(C)n4)n3)cc12	7.9	2	–	–	–	–	–
CNC(=O)c1nn(C)c2ccc(Nc3nccc(-n4cc(O[C@H]5CNC[C@H]5F)c(C)n4)n3)cc12	0.4	2.9	25	44	–	1400	–
Cc1nn(-c2ccnc3[nH]c(-c4cccc5c4ccn5C)nc23)cc1CN(C)C	–	–	–	37	–	–	–
Cc1nn(-c2ccnc(Nc3ccc4c(c3)c(C(=O)C(F)(F)F)cn4C)n2)cc1N[C@@H]1CCOC[C@@H]1N	0.22	2.4	8	71	4700	–	–
CNC(=O)c1nc(C)n2ccc(Nc3nccc(-n4cc(CN(C)C)cn4)n3)cc12	0.24	1.3	13	20	7100	230	–
